Measured values as given in PubChem BioAssay AID1195 (EPA DSSTox, 2008).

System: human maximum recommended daily dose, FDA database
Assay: DSSTox (FDAMDD) FDA Maximum (Recommended) Daily Dose Database
Conditions: hits give low values
Method in brief: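 MRDD values come from clinical trials with daily oral dosing, usually for 3–12 months, for the average adult, in mg/day converted to mg/kg-bw/day assuming 60 kg. Antineoplastic mg/m2 doses are divided by 37. Activity score maps log10(1/MRDD mmol) onto 1–100.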

[1] = TherapeuticCategory: antibacterial
[2] = TherapeuticCategory: diagnostic aid
[3] = TherapeuticCategory: antidiabetic
[4] = TherapeuticCategory: antineoplastic
[5] = TherapeuticCategory: antitussive
[6] = TherapeuticCategory: antihypertensive
[7] = TherapeuticCategory: antiulcerative
[8] = TherapeuticCategory: antipsychotic

Cn1c(=O)c2c(ncn2CCO)n(C)c1=O
maximum recommended daily dose (mmol/kg-bw/day) (TherapeuticCategory: bronchodilator): 0.0372

CO[C@H]1C[C@H](O[C@H]2[C@H](C)[C@@H](O[C@@H]3O[C@H](C)C[C@H](N(C)C)[C@H]3O)[C@@H](C)C[C@]3(CO3)C(=O)[C@H](C)[C@@H](O)[C@@H](C)[C@@H](C)OC(=O)[C@@H]2C)O[C@@H](C)[C@@H]1O
maximum recommended daily dose (mmol/kg-bw/day) [1]: 0.0484

NCC(=O)O
maximum recommended daily dose (mmol/kg-bw/day) (TherapeuticCategory: none): 1.33

Cc1cc(-c2ccc(N=Nc3ccc4c(S(=O)(=O)O)cc(S(=O)(=O)O)c(N)c4c3O)c(C)c2)ccc1N=Nc1ccc2c(S(=O)(=O)O)cc(S(=O)(=O)O)c(N)c2c1O
maximum recommended daily dose (mmol/kg-bw/day) [2]: 0.000347

CC(=O)OC(C)C[N+](C)(C)C (centres undefined)
maximum recommended daily dose (mmol/kg-bw/day) (TherapeuticCategory: cholinergic, diagnostic aid): 0.00213

CCCCNC(=O)NS(=O)(=O)c1ccc(N)cc1
maximum recommended daily dose (mmol/kg-bw/day) [3]: 0.0615

NS(=O)(=O)c1cc(C2(O)NC(=O)c3ccccc32)ccc1Cl (centres undefined)
maximum recommended daily dose (mmol/kg-bw/day) (TherapeuticCategory: diuretic, antihypertensive): 0.00246

CC(C)(CO)[C@@H](O)C(=O)NCCC(=O)O
maximum recommended daily dose (mmol/kg-bw/day) (TherapeuticCategory: vitamin): 0.000534

CC[C@H]1CN2CCc3cc(OC)c(OC)cc3[C@@H]2C[C@@H]1C[C@H]1NCCc2cc(OC)c(OC)cc21
maximum recommended daily dose (mmol/kg-bw/day) (TherapeuticCategory: antiamebic): 0.00208

O=C1CCC(N2C(=O)c3ccccc3C2=O)C(=O)N1 (centres undefined)
maximum recommended daily dose (mmol/kg-bw/day) (TherapeuticCategory: sedative, hypnotic): 0.0258

C[C@H](CCC(=O)O)[C@H]1CC[C@H]2[C@@H]3[C@@H](O)C[C@@H]4C[C@H](O)CC[C@]4(C)[C@H]3CC[C@]12C
maximum recommended daily dose (mmol/kg-bw/day) (TherapeuticCategory: anticholelithogenic): 0.0255

S=c1nc[nH]c2nc[nH]c12
maximum recommended daily dose (mmol/kg-bw/day) [4]: 0.0164

CC1=C(/C=C/C(C)=C/C=C/C(C)=C/C=C/C=C(C)/C=C/C=C(C)/C=C/C2=C(C)CCCC2(C)C)C(C)(C)CCC1
maximum recommended daily dose (mmol/kg-bw/day) (TherapeuticCategory: vitamin A precursor, UV screen): 9.31e-05

COc1ccc2c(c1)[C@]13CCCC[C@@H]1[C@H](C2)N(C)CC3
maximum recommended daily dose (mmol/kg-bw/day) [5]: 0.00737

COC1=C(C(=O)O)N2C(=O)[C@@H](NC(=O)[C@H](N)C3=CCC=CC3)[C@H]2SC1
maximum recommended daily dose (mmol/kg-bw/day) [1]: 0.0911

CCC(C)C(C)(COC(N)=O)COC(N)=O (centres undefined)
maximum recommended daily dose (mmol/kg-bw/day) [6]: 0.0861

CC[C@H]1OC(=O)[C@H](C)[C@@H](O[C@H]2C[C@@](C)(OC)[C@@H](O)[C@H](C)O2)[C@H](C)[C@@H](O[C@@H]2O[C@H](C)C[C@H](N(C)C)[C@H]2OC(C)=O)[C@](C)(O)C[C@@H](C)C(=O)[C@H](C)[C@@H](O)[C@]1(C)O
maximum recommended daily dose (mmol/kg-bw/day) [1]: 0.0629

NCc1ccccc1CC(=O)N[C@@H]1C(=O)N2C(C(=O)O)=C(CSc3nnnn3CC(=O)O)CS[C@H]12
maximum recommended daily dose (mmol/kg-bw/day) [1]: 0.0641

O=C1CN=C(c2ccccc2Cl)c2cc([N+](=O)[O-])ccc2N1
maximum recommended daily dose (mmol/kg-bw/day) (TherapeuticCategory: anticonvulsant): 0.000421

CCn1cc(C(=O)O)c(=O)c2cnc(N3CCNCC3)nc21
maximum recommended daily dose (mmol/kg-bw/day) [1]: 0.0438

CCN(CC)CCOC(=O)C(c1ccccc1)c1ccccc1
maximum recommended daily dose (mmol/kg-bw/day) (TherapeuticCategory: anticholinergic): 0.0241

CCCCC(=O)O[C@]1(C(=O)CO)[C@@H](C)C[C@H]2[C@@H]3CCC4=CC(=O)C=C[C@]4(C)[C@@]3(F)[C@@H](O)C[C@@]21C
maximum recommended daily dose (mmol/kg-bw/day) (TherapeuticCategory: glucocorticoid): 0.000315

CC[C@H]1OC(=O)[C@H](C)[C@@H](O[C@H]2C[C@@](C)(OC)[C@@H](O)[C@H](C)O2)[C@H](C)[C@@H](O[C@@H]2O[C@H](C)C[C@H](N(C)C)[C@H]2O)[C@](C)(O)C[C@@H](C)C(=O)[C@H](C)[C@@H](O)[C@]1(C)O
maximum recommended daily dose (mmol/kg-bw/day) [1]: 0.0909

N[C@@H]1CONC1=O
maximum recommended daily dose (mmol/kg-bw/day) [1]: 0.164

N=c1ccn2c(n1)O[C@H]1[C@H](O)[C@@H](CO)O[C@H]12
maximum recommended daily dose (mmol/kg-bw/day) [4]: 0.0888

C[C@@]12CCCCC[C@@H](Cc3ccc(O)cc31)[C@@H]2N
maximum recommended daily dose (mmol/kg-bw/day) (TherapeuticCategory: narcotic analgesic): 0.000681

CO/N=C(\C(=O)N[C@@H]1C(=O)N2C(C(=O)O)=C(CSc3nc(C)c(CC(=O)O)s3)CS[C@H]12)c1csc(N)n1
maximum recommended daily dose (mmol/kg-bw/day) [1]: 0.057

CCCC(CCC)C(=O)O
maximum recommended daily dose (mmol/kg-bw/day) (TherapeuticCategory: anticonvulsant, antiepileptic): 0.289

CC(C)=CCOc1ccc(/C=C/C(=O)c2ccc(OCC=C(C)C)cc2OCC(=O)O)cc1
maximum recommended daily dose (mmol/kg-bw/day) [7]: 0.0111

COc1ccc2c3c1O[C@H]1[C@@H](O)CC[C@H]4[C@@H](C2)N(C)CC[C@@]341
maximum recommended daily dose (mmol/kg-bw/day) (TherapeuticCategory: narcotic analgesic, antitussive): 0.0106

CN1C(=O)CN=C(c2ccccc2)c2cc(Cl)ccc21
maximum recommended daily dose (mmol/kg-bw/day) (TherapeuticCategory: anxiolytic, skeletal muscle relaxant): 0.00234

COc1ccc(C[C@@H](C)NC[C@H](O)c2ccc(O)c(NC=O)c2)cc1
maximum recommended daily dose (mmol/kg-bw/day) (TherapeuticCategory: antiasthmatic): 0.00775

CC[N+]1(CC)CCC(=C(c2ccccc2)c2ccccc2)C1C (centres undefined)
maximum recommended daily dose (mmol/kg-bw/day) (TherapeuticCategory: antispasmodic): 0.00518

Cc1c(-c2ccccc2)n(/N=N/n2c(-c3ccccc3)c(C)[n+]3ccccc23)c2cccc[n+]12
maximum recommended daily dose (mmol/kg-bw/day) (TherapeuticCategory: skeletal muscle relaxant): 0.00165

Cc1c(C(=O)O)c(O)cc2c1C(=O)c1c(O)c([C@@H]3O[C@H](CO)[C@@H](O)[C@H](O)[C@H]3O)c(O)c(O)c1C2=O
maximum recommended daily dose (mmol/kg-bw/day) (TherapeuticCategory: none): 0.0169

Cc1cc(O)c2ccccc2c1O
maximum recommended daily dose (mmol/kg-bw/day) (TherapeuticCategory: prothrombogenic vitamin): 0.000959

CN(C)[C@@H]1C(=O)C(C(N)=O)=C(O)[C@@]2(O)C(=O)C3=C(O)c4c(O)ccc(Cl)c4[C@@](C)(O)[C@H]3C[C@@H]12
maximum recommended daily dose (mmol/kg-bw/day) (TherapeuticCategory: antibacterial, antiamebic): 0.0695

CC(COc1ccccc1)N(CCCl)Cc1ccccc1 (centres undefined)
maximum recommended daily dose (mmol/kg-bw/day) [6]: 0.00658

CC(=O)[C@@]1(O)CC[C@H]2[C@@H]3C=C(Cl)C4=CC(=O)CC[C@]4(C)[C@H]3CC[C@@]21C
maximum recommended daily dose (mmol/kg-bw/day) (TherapeuticCategory: progestogen, antineoplastic): 9.18e-05

C#C[C@]1(OC(C)=O)CC[C@H]2[C@@H]3CCC4=CC(=O)CC[C@@H]4[C@H]3CC[C@@]21C
maximum recommended daily dose (mmol/kg-bw/day) (TherapeuticCategory: progestogen): 4.91e-05

CNCCc1ccccn1
maximum recommended daily dose (mmol/kg-bw/day) (TherapeuticCategory: vasodilator): 0.00587

CN1c2cc(O)c(N=NC(N)=O)cc2CC1S(=O)(=O)O (centres undefined)
maximum recommended daily dose (mmol/kg-bw/day) (TherapeuticCategory: hemostatic): 0.00931

CC1(C)S[C@@H]2[C@H](NC(=O)[C@@H](NC(=O)N3CCNC3=O)c3ccccc3)C(=O)N2[C@H]1C(=O)O
maximum recommended daily dose (mmol/kg-bw/day) [1]: 0.217

CNC(C)CC1CCCCC1 (centres undefined)
maximum recommended daily dose (mmol/kg-bw/day) (TherapeuticCategory: andrenergic, nasal decongestant): 0.0161

CC(=O)Nc1nnc(S(N)(=O)=O)s1
maximum recommended daily dose (mmol/kg-bw/day) (TherapeuticCategory: carbonic anhydrase inhibitor, diuretic): 0.0751

Cc1c(C(C)C)c(=O)n(-c2ccccc2)n1C
maximum recommended daily dose (mmol/kg-bw/day) (TherapeuticCategory: analgesic, antipyretic, antiphlogistic): 0.13

O=C1Cc2cc(CCN3CCN(c4nsc5ccccc45)CC3)c(Cl)cc2N1
maximum recommended daily dose (mmol/kg-bw/day) (TherapeuticCategory: antipsychotic, dopamine receptor antagonist, seratonin receptor antagonist): 0.00647

N[C@@H](Cc1ccc(N(CCCl)CCCl)cc1)C(=O)O
maximum recommended daily dose (mmol/kg-bw/day) [4]: 0.000328

CNC1(C)C2CCC(C2)C1(C)C (centres undefined)
maximum recommended daily dose (mmol/kg-bw/day) [6]: 0.00249

CCNCC(O)c1cccc(O)c1 (centres undefined)
maximum recommended daily dose (mmol/kg-bw/day) (TherapeuticCategory: antihypotensive): 0.0046

CC[C@@H](CO)NCCN[C@@H](CC)CO
maximum recommended daily dose (mmol/kg-bw/day) [1]: 0.122

CC(=O)[C@]1(O)Cc2c(O)c3c(c(O)c2[C@@H](O[C@H]2C[C@H](N)[C@H](O)[C@H](C)O2)C1)C(=O)c1c(O)cccc1C3=O
maximum recommended daily dose (mmol/kg-bw/day) [4]: 0.00132

O=C1CN=C(c2ccccc2)c2cc(Cl)ccc2N1CC1CC1
maximum recommended daily dose (mmol/kg-bw/day) (TherapeuticCategory: anxiolytic): 0.00308

Nc1ncnc2nc[nH]c12
maximum recommended daily dose (mmol/kg-bw/day) (TherapeuticCategory: research): 0.111

O=C(CCCCC(=O)Nc1c(I)cc(I)c(C(=O)O)c1I)Nc1c(I)cc(I)c(C(=O)O)c1I
maximum recommended daily dose (mmol/kg-bw/day) [2]: 0.147

Cc1cc(C(=O)NNCc2ccccc2)no1
maximum recommended daily dose (mmol/kg-bw/day) (TherapeuticCategory: antidepressant): 0.00432

CCN(CC)CCNC(=O)c1ccc(N)cc1
maximum recommended daily dose (mmol/kg-bw/day) (TherapeuticCategory: antiarrhythmic): 0.212

Cc1c(C)c2c(c(C)c1O)CCC(C)(COc1ccc(CC3SC(=O)NC3=O)cc1)O2 (centres undefined)
maximum recommended daily dose (mmol/kg-bw/day) [3]: 0.0226

CCNNC(=O)[C@@H]1[C@H](c2cc(OC)c(OC)c(OC)c2)c2cc3c(cc2[C@H](O)[C@H]1CO)OCO3
maximum recommended daily dose (mmol/kg-bw/day) [4]: 0.00702

CN(C)CCn1nnnc1SCC1=C(C(=O)O)N2C(=O)[C@@H](NC(=O)Cc3csc(N)n3)[C@H]2SC1
maximum recommended daily dose (mmol/kg-bw/day) [1]: 0.19

CCCC(=O)c1ccc2c(c1)N(CCCN1CCN(C)CC1)c1ccccc1S2
maximum recommended daily dose (mmol/kg-bw/day) [8]: 0.00408

CCOc1ccccc1C(N)=O
maximum recommended daily dose (mmol/kg-bw/day) (TherapeuticCategory: analgesic): 0.404

CC1(C)[C@@H](OC(=O)CCC(=O)O)CC[C@]2(C)[C@H]3C(=O)C=C4[C@@H]5C[C@@](C)(C(=O)O)CC[C@]5(C)CC[C@@]4(C)[C@]3(C)CC[C@@H]12
maximum recommended daily dose (mmol/kg-bw/day) [7]: 0.00876

CN(C)CC/C=C1\c2ccccc2Sc2ccc(Cl)cc21
maximum recommended daily dose (mmol/kg-bw/day) [8]: 0.0105

C[C@]1(O)CC[C@H]2[C@@H]3CCC4=CC(=O)CC[C@@H]4[C@H]3CC[C@@]21C
maximum recommended daily dose (mmol/kg-bw/day) (TherapeuticCategory: androgen): 0.00173

COC(=O)C1=C(C)NC(C)=C(C(=O)OCCN(C)Cc2ccccc2)C1c1cccc([N+](=O)[O-])c1 (centres undefined)
maximum recommended daily dose (mmol/kg-bw/day) (TherapeuticCategory: antianginal, antihypertensive): 0.00417

COc1cc2c(cc1OC)C(Cc1cc(OC)c(OC)c(OC)c1)[N+](C)(CCCOC(=O)CC/C=C/CCC(=O)OCCC[N+]1(C)CCc3cc(OC)c(OC)cc3C1Cc1cc(OC)c(OC)c(OC)c1)CC2 (centres undefined)
maximum recommended daily dose (mmol/kg-bw/day) (TherapeuticCategory: skeletal muscle relaxant, neuromuscular blocker): 0.000227

CCN(CC)CCOCCOC(=O)C1(c2ccccc2)CCCC1
maximum recommended daily dose (mmol/kg-bw/day) [5]: 0.006

CCCCCCCCCC(=O)OCCN1CCN(CCCN2c3ccccc3Sc3ccc(C(F)(F)F)cc32)CC1
maximum recommended daily dose (mmol/kg-bw/day) (TherapeuticCategory: antispsychotic): 0.000563
